Measured values reported in patent US8404805B2, “Characterization of GRP94-ligand interactions and purification, screening, and therapeutic methods relating thereto” (Duke University, priority 2000, dated 2013).

Experiments:
GRP94 [1] = target: T1, GRP94 (Sus scrofa, UniProt Q29092); assay: Polarity-sensitive fluorescent probe binding to GRP94 (fluorescence emission); design: GRP94 was purified from porcine pancreas; from tissue; host or cells: porcine pancreas (rough microsomes); species or system porcine; settings: for probe interaction with native versus heat shocked GRP94 (emission spectra): 0.5 μM GRP94, 5 μM probe, 30 min at 37° C.
Procedure: Fluorescent probes were obtained from Molecular Probes (Eugene, Oreg.). […] All other reagents were obtained from Sigma Chemical Co. (St. Louis, Mo.) unless otherwise indicated. […] Fluorophore Binding Reactions. […] For all assays, control reactions at solvent dilutions identical to experimental conditions were performed to correct for any solvent effects. […] Fluorescence Measurements. Emission spectra were obtained in a FLUOROMAXTM spectrofluorometer (SPEX Industries Inc. of Edison, N.J.) operating in photon counting mode. Spectra were recorded and processed with DM3000f operating software, version 2.1 (SPEX Industries Inc. of Edison, N.J.). For emission scans, slit width was set at 1 nm. […] All spectra were background corrected.

HSP90 [2] = settings: Prodromou et al. (1997); cited from earlier work
GRP94 [3] = target: T1, GRP94; assay: [3H]-NECA competitive displacement assay; settings: for competition with [3H]-NECA for binding to GRP94: nominal (80 μM) Mg2+; for relative affinities of binding to GRP94 in excess Mg2+: 10 mM Mg(OAc)2; for effect of excess Mg2+ on binding to GRP94: 10 mM Mg(OAc)2 versus nominal magnesium; for relative affinity of GRP94 for the nucleotide: NECA displacement; for binding to GRP94, nucleoside base specificity by [3H]-NECA displacement: competitors at 50 μM
Procedure: (§3) Where indicated, binding reactions were performed in either buffer C (10 mM Tris, pH 7.5, 50 mM KCl, 5 mM MgCl2, 2 mM DTT, 0.01% NP-40, 20 mM Na2MoO4) or 50 mM Tris, pH 7.5, 10 mM Mg(OAc)2. […] Vacuum filtration was performed with an Amersham Pharmacia Biotech (Piscataway, N.J.) vacuum filtration manifold.

GRP94 [4] = target: T1, GRP94; assay: Tryptophan fluorescence of GRP94 (tertiary conformational state); format: biochemical, porcine; design: GRP94 was purified from porcine pancreas; from tissue; host or cells: porcine pancreas (rough microsomes); settings: 50 μM NECA, 50 μM geldanamycin, 2.5 mM ATP or 2.5 mM ADP, 1 hour at 37° C., excitation 295 nm
Procedure: Tryptophan Fluorescence. Tryptophan fluorescence measurements were conducted in a FLUOROMAX™ spectrofluorometer (Spex Industries, Inc. of Edison, N.J.) with the slit widths set to 1 nm for both excitation and emission. […] All spectra were corrected by subtraction of buffer or buffer plus ligand samples. […] Samples were then cooled to room temperature, transferred to a quartz cuvette, and the spectra collected.

BiP [5] = assay: [32P]ATP binding assay; design: species or system porcine; settings: 50 μM [32P]ATP, 1 hour on ice
Procedure: (§1) ATP Binding Assay. Six:g of GRP94, BiP, and Hsp90 was incubated with 50:M (-[^32P] ATP (1000 ΦCi/Φmol) (Amersham Pharmacia Biotech of Piscataway, N.J.) in buffer B on ice for 1 hour. Nitrocellulose filters (BA85) (Schleicher & Schuell of Keene, N.H.) were individually wet in buffer B before use, and bound versus free [^32P]-ATP was separated by vacuum filtration. Filters were washed with 3×2 mL of ice cold buffer B, placed in 5 mL of scintillation fluid, vortexed, and counted.

Hsp90 [6] = assay: [32P]ATP binding assay; design: species or system rat; settings: 50 μM [32P]ATP, 1 hour on ice
Procedure: as §1

GRP94 [7] = target: T1, GRP94; assay: [32P]ATP binding assay; design: GRP94 was purified from porcine pancreas; from tissue; host or cells: porcine pancreas (rough microsomes); species or system porcine; settings: 50 μM [32P]ATP, 1 hour on ice
Procedure: as §1

casein kinase II = casein kinase II (Homo sapiens, UniProt P68400); assay: Casein kinase assay; format: biochemical; settings: 180 μM NECA or radicicol in 3.6% DMSO, 5 μg/ml heparin, 5 mM GTP
Procedure: (§2) Phosphorylation Assays. […] For the casein kinase assay, 1 unit of casein kinase II was incubated as described above, with the addition of 4:M casein. […] The 25:I reaction mixtures were incubated at 37° C. for 1 hour and quenched by addition of 10% trichloroacetic acid. Samples were analyzed by 10% SDS-PAGE gels and the phosphorylated species were quantitated using a Fuji MACBAS1000™ phosphorimaging system (Fuji Medical Systems of Stamford, Conn.).

GRP94 [8] = target: T1, GRP94; assay: GRP94 autophosphorylation assay; format: biochemical, porcine; design: GRP94 was purified from porcine pancreas; from tissue; host or cells: porcine pancreas (rough microsomes); settings: 180 μM NECA or radicicol in 3.6% DMSO, 5 μg/ml heparin, 5 mM GTP
Procedure: as §2

GRP94 [9] = target: T1, GRP94; assay: [3H]-NECA binding assay (vacuum filtration)
Procedure: as §3

BiP [10] = assay: [3H]-NECA binding assay (vacuum filtration); settings: 20 nM [3H]-NECA, 60 min on ice
Procedure: as §3

GRP94 [11] = target: T1, GRP94; assay: Isothermal titration calorimetry; format: binding, porcine; design: GRP94 was purified from porcine pancreas; from tissue; host or cells: porcine pancreas (rough microsomes); settings: 5 μM GRP94, 152 μM NECA stock, 25° C.
Procedure: Isothermal calorimetry experiments were performed at 25° C. using a MSC calorimeter (MicroCal Inc. of Northampton, Mass.). […] Necessary corrections were made by subtracting the heats of dilution resulting from buffer addition to protein solution and ligand solution into buffer.

GRP94 [12] = target: T1, GRP94; assay: ATPase assay (HPLC); format: biochemical, porcine; design: GRP94 was purified from porcine pancreas; from tissue; host or cells: porcine pancreas (rough microsomes)
Procedure: Samples were then spun through a CENTRICON®-30 (Amicon of Beverly, Mass.) at 10,000 rpm, 4° C. to separate protein from nucleotide. A final concentration of 50 mM (NH4)2HPO4, pH 7.0, and 4:M AMP, pH 7.0, was added to dilutions of the above samples and centrifuged at 15,200 rpm for 5 minutes at 4° C. 100:L of supernatant was then fractionated on a […] column (Alltech of Deerfield, Ill.), using a Series 1050 Hewlett Packard HPLC system. Elution of nucleotides was performed by step gradient elution using a mobile phase of 150 mM (NH4)2HPO4, pH 5.2, at 1.2 ml/min for the first ten minutes, followed by 300 mM (NH4)2HPO4, pH 5.2, at a flow rate of 2 ml/min for the remainder of the elution. In this protocol, ADP and ATP were well resolved, with ADP eluting at 7 minutes and ATP at 12 minutes. Peak height values were used in calculations of percent hydrolysis and ADP formation. Spontaneous hydrolysis was determined for each ATP concentration in paired incubations lacking GRP94. The AMP was used as an internal reference standard to control for equivalent sample loading.

HSP90 [13] = target: HSP90 (Saccharomyces cerevisiae, UniProt P02829); settings: Roe et al. (1999); cited from earlier work
HSP90 (Saccharomyces cerevisiae, UniProt P02829), sequence (P02829 whole entry): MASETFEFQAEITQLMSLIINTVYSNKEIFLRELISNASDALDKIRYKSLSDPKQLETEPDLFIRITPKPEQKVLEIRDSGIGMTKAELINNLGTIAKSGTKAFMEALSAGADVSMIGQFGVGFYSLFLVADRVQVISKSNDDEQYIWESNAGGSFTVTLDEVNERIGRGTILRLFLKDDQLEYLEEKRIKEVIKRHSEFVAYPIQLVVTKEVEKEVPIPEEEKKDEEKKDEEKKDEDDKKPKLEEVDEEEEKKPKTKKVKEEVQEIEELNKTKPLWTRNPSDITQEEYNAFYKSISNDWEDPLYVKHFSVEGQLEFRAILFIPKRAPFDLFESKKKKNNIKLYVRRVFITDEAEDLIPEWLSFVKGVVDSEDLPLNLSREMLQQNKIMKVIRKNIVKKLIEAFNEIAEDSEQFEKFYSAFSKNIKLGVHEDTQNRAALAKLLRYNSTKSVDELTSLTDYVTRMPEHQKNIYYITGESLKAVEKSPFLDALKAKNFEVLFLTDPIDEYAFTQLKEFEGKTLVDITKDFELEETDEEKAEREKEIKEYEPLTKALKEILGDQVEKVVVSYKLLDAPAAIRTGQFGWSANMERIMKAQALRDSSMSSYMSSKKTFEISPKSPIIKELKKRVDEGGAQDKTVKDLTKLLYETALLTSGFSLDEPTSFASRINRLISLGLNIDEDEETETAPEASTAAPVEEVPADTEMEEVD

T1 sequence (Q29092 22-804): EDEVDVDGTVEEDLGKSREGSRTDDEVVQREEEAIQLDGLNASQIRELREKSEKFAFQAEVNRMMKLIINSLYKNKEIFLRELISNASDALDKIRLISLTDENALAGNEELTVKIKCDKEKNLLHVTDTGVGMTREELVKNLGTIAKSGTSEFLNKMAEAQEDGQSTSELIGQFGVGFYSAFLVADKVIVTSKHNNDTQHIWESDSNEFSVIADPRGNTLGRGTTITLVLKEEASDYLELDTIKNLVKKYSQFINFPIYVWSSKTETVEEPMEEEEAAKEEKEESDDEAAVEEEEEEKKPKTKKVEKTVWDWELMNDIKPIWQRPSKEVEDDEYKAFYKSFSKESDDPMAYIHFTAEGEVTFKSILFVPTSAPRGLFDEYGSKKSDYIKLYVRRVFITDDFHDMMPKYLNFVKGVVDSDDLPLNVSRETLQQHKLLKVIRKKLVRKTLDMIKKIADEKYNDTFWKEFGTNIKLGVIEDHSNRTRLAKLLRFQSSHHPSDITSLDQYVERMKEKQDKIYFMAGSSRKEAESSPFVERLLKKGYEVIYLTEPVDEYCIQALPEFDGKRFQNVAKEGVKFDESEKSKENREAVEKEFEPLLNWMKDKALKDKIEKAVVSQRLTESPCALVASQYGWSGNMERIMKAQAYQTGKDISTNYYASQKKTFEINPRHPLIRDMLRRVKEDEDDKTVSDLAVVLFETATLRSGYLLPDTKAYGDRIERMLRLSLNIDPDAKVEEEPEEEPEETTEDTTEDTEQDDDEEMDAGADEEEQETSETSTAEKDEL
casein kinase II, sequence (P68400 whole entry): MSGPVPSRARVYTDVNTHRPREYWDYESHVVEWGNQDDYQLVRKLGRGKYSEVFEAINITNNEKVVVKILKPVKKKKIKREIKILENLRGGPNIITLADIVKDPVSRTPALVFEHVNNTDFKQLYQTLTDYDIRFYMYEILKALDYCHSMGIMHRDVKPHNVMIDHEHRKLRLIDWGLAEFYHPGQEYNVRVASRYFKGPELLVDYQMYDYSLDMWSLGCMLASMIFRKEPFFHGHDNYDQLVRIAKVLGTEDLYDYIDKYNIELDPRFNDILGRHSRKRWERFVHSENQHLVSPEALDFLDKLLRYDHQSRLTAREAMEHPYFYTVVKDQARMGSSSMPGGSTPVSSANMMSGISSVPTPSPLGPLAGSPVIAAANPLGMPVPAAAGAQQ
casein kinase II, sequence (P67870 whole entry partner): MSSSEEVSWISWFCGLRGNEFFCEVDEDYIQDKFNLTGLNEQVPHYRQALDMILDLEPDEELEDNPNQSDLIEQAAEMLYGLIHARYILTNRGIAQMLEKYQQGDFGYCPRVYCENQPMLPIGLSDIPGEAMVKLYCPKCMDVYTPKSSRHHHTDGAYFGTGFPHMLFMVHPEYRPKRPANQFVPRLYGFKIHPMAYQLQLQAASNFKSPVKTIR

## O=S(=O)(O)c1cccc2cccc(Nc3ccccc3)c12 [8-ANS, 1,8-anilinonaphthalenesulfonate]
GRP94 [1]
  agonist activity for GRP94 activation: lacks agonist activity
  probe interaction with native versus heat shocked GRP94 (emission spectra): displays weak interactions with native GRP94, yet binds avidly following heat shock

## Nc1ncnc2c1ncn2[C@@H]1O[C@H](COP(=O)(O)OP(=O)(O)O)[C@@H](O)[C@H]1O [ADP]
HSP90 [2]
  affinity of N-terminal domain of Hsp90 for ADP relative to ATP: four
GRP94 [3]; 20 nM [3H]-NECA
  competition with [3H]-NECA for binding to GRP94: effectively competed
GRP94 [3]
  relative affinities of binding to GRP94 in excess Mg2+: nearly identical relative affinities
  effect of excess Mg2+ on binding to GRP94: markedly stimulated
  relative affinity of GRP94 for the nucleotide: quite low
GRP94 [4]
  change of GRP94 tryptophan fluorescence: decreased

## Nc1ncnc2c1ncn2[C@@H]1O[C@H](COP(=O)(O)O)[C@@H](O)[C@H]1O [AMP]
GRP94 [3]; 20 nM [3H]-NECA
  competition with [3H]-NECA for binding to GRP94: effectively competed
GRP94 [3]
  effect of excess Mg2+ on binding to GRP94: markedly stimulated
  relative affinity of GRP94 for the nucleotide: quite low

## Nc1ncnc2c1ncn2[C@@H]1O[C@H](COP(=O)(O)OP(=O)(O)OP(=O)(O)O)[C@@H](O)[C@H]1O [ATP]
BiP [5]
  ATP binding: displayed the expected ATP binding activity
Hsp90 [6]
  ATP binding: no ATP binding was observed
GRP94 [3]; 20 nM [3H]-NECA
  molar excess required for 50% inhibition of [3H]-NECA binding: ~1000 -fold molar excess
  competition with [3H]-NECA for binding to GRP94: effectively competed
  binding to GRP94, nucleoside base specificity by [3H]-NECA displacement: could bind
GRP94 [3]
  relative affinities of binding to GRP94 in excess Mg2+: nearly identical relative affinities
  effect of excess Mg2+ on binding to GRP94: markedly stimulated
  relative affinity of GRP94 for the nucleotide: quite low
GRP94 [3]; nominal Mg2+
  efficacy of competing NECA binding, ATP relative to ADP: eight
GRP94 [7]
  ATP binding: no ATP binding was observed
GRP94 [4]
  change of GRP94 tryptophan fluorescence: decreased

## Nc1ccn([C@@H]2O[C@H](COP(=O)(O)OP(=O)(O)OP(=O)(O)O)[C@@H](O)[C@H]2O)c(=O)n1 [CTP]
GRP94 [3]; 20 nM [3H]-NECA
  binding to GRP94, nucleoside base specificity by [3H]-NECA displacement: little to no binding

## Nc1nc2c(ncn2[C@@H]2O[C@H](COP(=O)(O)OP(=O)(O)OP(=O)(O)O)[C@@H](O)[C@H]2O)c(=O)[nH]1 [GTP]
Casein kinase II
  effect on casein kinase II activity: markedly attenuated
GRP94 [3]; 20 nM [3H]-NECA
  binding to GRP94, nucleoside base specificity by [3H]-NECA displacement: little to no binding
GRP94 [8]
  effect on GRP94 autophosphorylation (GRP94-derived kinase) activity: markedly attenuated

## CCNC(=O)[C@H]1O[C@@H](n2cnc3c(N)ncnc32)[C@H](O)[C@@H]1O [NECA, N-ethylcarboxamidoadenosine]
Casein kinase II
  effect on casein kinase II activity: neither NECA nor radicicol, both of which bind to the N-terminal nucleotide binding domain of GRP94, significantly inhibit GRP94 derived or casein kinase II activity below the solvent background
GRP94 [3]
  effect of excess Mg2+ on binding to GRP94: without effect
GRP94 [9]
  slope of Hill plot: 1.2
GRP94 [9]; 20 nM [3H]-NECA, 60 min on ice
  [3H]-NECA binding activity: readily detectable
GRP94 [9]; radioligand, vacuum filtration
  binding stoichiometry: 0.5 mol [^3H]-NECA/mol GRP94 monomer
BiP [10]
  [3H]-NECA binding activity: not observed
GRP94 [11]
  binding stoichiometry by isothermal titration calorimetry: 1.1 mol NECA/mol GRP94 dimer
GRP94 [8]
  effect on GRP94 autophosphorylation (GRP94-derived kinase) activity: neither NECA nor radicicol, both of which bind to the N-terminal nucleotide binding domain of GRP94, significantly inhibit GRP94 derived or casein kinase II activity below the solvent background
GRP94 [12]
  effect on GRP94 ATPase activity: sensitive to inhibition by NECA
GRP94 [4]
  change of GRP94 tryptophan fluorescence: increased the tryptophan fluorescence

## CCC(=O)c1ccc2cc(N(C)C)ccc2c1 [Prodan, 6-propionyl-2-(dimethylamino)naphthalene]
GRP94 [1]
  probe interaction with native versus heat shocked GRP94 (emission spectra): does not interact with the hydrophobic binding pocket(s) displayed by heat shocked GRP94

## O=c1ccn([C@@H]2O[C@H](COP(=O)(O)OP(=O)(O)OP(=O)(O)O)[C@@H](O)[C@H]2O)c(=O)[nH]1 [UTP]
GRP94 [3]; 20 nM [3H]-NECA
  binding to GRP94, nucleoside base specificity by [3H]-NECA displacement: little to no binding

## Nc1ncnc2c1ncn2[C@@H]1O[C@H](CO)[C@@H](O)[C@H]1O [adenosine]
GRP94 [3]; 20 nM [3H]-NECA
  relative displacement activity of [3H]-NECA: approximating that observed for ADP
GRP94 [3]
  effect of excess Mg2+ on binding to GRP94: without effect

## Nc1ncnc2c1ncn2[C@H]1C[C@H](O)[C@@H](COP(=O)(O)OP(=O)(O)OP(=O)(O)O)O1 [deoxyATP]
GRP94 [3]; 20 nM [3H]-NECA
  binding to GRP94, nucleoside base specificity by [3H]-NECA displacement: could bind

## C[C@@H]1C[C@H]2O[C@@H]2/C=C\C=C\C(=O)Cc2c(Cl)c(O)cc(O)c2C(=O)O1 [radicicol]
Casein kinase II
  effect on casein kinase II activity: neither NECA nor radicicol, both of which bind to the N-terminal nucleotide binding domain of GRP94, significantly inhibit GRP94 derived or casein kinase II activity below the solvent background
HSP90 [13]
  expected binding stoichiometry: 2 mol radicicol/mol Hsp90 dimer

## heparin
Casein kinase II
  effect on casein kinase II activity: markedly attenuated
GRP94 [8]
  effect on GRP94 autophosphorylation (GRP94-derived kinase) activity: markedly attenuated
